Laboratory results from PubChem BioAssay (NCI).
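Here, GI50 denotes the concentration required for 50% inhibition of growth. TGI: concentration producing complete growth inhibition.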

Columns and labels:
Assay in all cases: inhibition of tumour cell growth, NCI panel, 384-well format; in the data active means GI50 below about 0.43 µM; inactive means the rest
NCI-H226 lung = tested on: NCI-H226 lung
MDA-MB-435 melanoma = tested on: MDA-MB-435 melanoma
OVCAR-8 ovarian = tested on: OVCAR-8 ovarian
HCC-2998 colon = tested on: HCC-2998 colon
TK-10 renal = tested on: TK-10 renal
MCF7 breast = tested on: MCF7 breast
HT29 colon = tested on: HT29 colon
CCRF-CEM leukemia = tested on: CCRF-CEM leukemia
CAKI-1 renal = tested on: CAKI-1 renal
OVCAR-3 ovarian = tested on: OVCAR-3 ovarian
NCI-H522 lung = tested on: NCI-H522 lung
HOP-92 NSCLC = tested on: HOP-92 NSCLC
OVCAR-5 ovarian = tested on: OVCAR-5 ovarian

Cc1cc(Nc2cc(N)ncn2)c(=O)n2c1C(=O)NC21CCCCC1
> 100 µM: TGI (NCI-H226 lung) | TGI (MDA-MB-435 melanoma) | TGI (OVCAR-8 ovarian) | TGI (HCC-2998 colon) | TGI (TK-10 renal) | TGI (MCF7 breast) | TGI (HT29 colon) | TGI (CCRF-CEM leukemia) | TGI (CAKI-1 renal) | TGI (OVCAR-3 ovarian) | TGI (NCI-H522 lung) | TGI (HOP-92 NSCLC) | TGI (OVCAR-5 ovarian)
inactive: GI50 (NCI-H226 lung) > 100 µM | GI50 (MDA-MB-435 melanoma) > 100 µM | GI50 (OVCAR-8 ovarian) > 100 µM | GI50 (HCC-2998 colon) > 100 µM | GI50 (TK-10 renal) > 100 µM | GI50 (MCF7 breast) > 100 µM | GI50 (HT29 colon) > 100 µM | GI50 (CCRF-CEM leukemia) > 100 µM | GI50 (CAKI-1 renal) > 100 µM | GI50 (OVCAR-3 ovarian) > 100 µM | GI50 (NCI-H522 lung) > 100 µM | GI50 (HOP-92 NSCLC) > 23.2 µM | GI50 (OVCAR-5 ovarian) > 100 µM
